# Measurements from patent publication US20030087906A1, “NITROGEN SUBSTITUTED BIARYL PURINE DERIVATIVES AS POTENT ANTIPROLIFERATIVE AGENTS” (priority 2001, published 2003).
# Key:
# Assay in all cases: NCI 60-cell line growth inhibition assay
# Assay type in all cases: cell-based
# BT-549 = settings: Homo sapiens; BT-549 (Breast)
# HS 578T = settings: Homo sapiens; HS 578T (Breast)
# MCF7 = settings: Homo sapiens; MCF7 (Breast)
# NCI/ADR-RES = settings: Homo sapiens; NCI/ADR-RES (Breast)
# T-47D = settings: Homo sapiens, T47D; T-47D (Breast)
# SF-268 = settings: Homo sapiens; SF-268 (CNS)
# SF-295 = settings: Homo sapiens; SF-295 (CNS)
# SNB-19 = settings: Homo sapiens; SNB-19 (CNS)
# COLO 205 = settings: Homo sapiens; COLO 205 (Colon)
# HCT-116 = settings: Homo sapiens; HCT-116 (Colon)
# SW-620 = settings: Homo sapiens; SW-620 (Colon)
# CCRF-CEM = settings: Homo sapiens; CCRF-CEM (Leukemia)
# HL-60(TB) = settings: Homo sapiens; HL-60(TB) (Leukemia)
# MOLT-4 = settings: Homo sapiens; MOLT-4 (Leukemia)
# RPMI-8226 = settings: Homo sapiens; RPMI-8226 (Leukemia)
# SR = settings: Homo sapiens; SR (Leukemia)
# LOX IMVI = settings: Homo sapiens; LOX IMVI (Melanoma)
# MALME-3M = settings: Homo sapiens; MALME-3M (Melanoma)
# SK-MEL-2 = settings: Homo sapiens; SK-MEL-2 (Melanoma)
# SK-MEL-28 = settings: Homo sapiens; SK-MEL-28 (Melanoma)
# SK-MEL-5 = settings: Homo sapiens; SK-MEL-5 (Melanoma)
# UACC-62 = settings: Homo sapiens; UACC-62 (Melanoma)
# A549/ATCC = settings: Homo sapiens; A549/ATCC (Non-Small Cell Lung)
# EKVX = settings: Homo sapiens; EKVX (Non-Small Cell Lung)
# HOP-62 = settings: Homo sapiens; HOP-62 (Non-Small Cell Lung)
# HOP-92 = settings: Homo sapiens; HOP-92 (Non-Small Cell Lung)
# NCI-H226 = settings: Homo sapiens; NCI-H226 (Non-Small Cell Lung)
# NCI-H322M = settings: Homo sapiens; NCI-H322M (Non-Small Cell Lung)
# NCI-H460 = settings: Homo sapiens; NCI-H460 (Non-Small Cell Lung)
# NCI-H522 = settings: Homo sapiens; NCI-H522 (Non-Small Cell Lung)
# OVCAR-3 = settings: Homo sapiens; OVCAR-3 (Ovarian)
# OVCAR-4 = settings: Homo sapiens; OVCAR-4 (Ovarian)
# SK-OV-3 = settings: Homo sapiens; SK-OV-3 (Ovarian)
# DU-145 = settings: Homo sapiens; DU-145 (Prostate)
# PC-3 = settings: Homo sapiens; PC-3 (Prostate)
# 786-0 = settings: Homo sapiens; 786-0 (Renal)
# ACHN = settings: Homo sapiens; ACHN (Renal)
# CAKI-1 = settings: Homo sapiens; CAKI-1 (Renal)
# RXF 393 = settings: Homo sapiens; RXF 393 (Renal)
# TK-10 = settings: Homo sapiens; TK-10 (Renal)
# UO-31 = settings: Homo sapiens; UO-31 (Renal)
smiles,measurement,setting,value
"Cn1cnc2c(NCc3ccccc3)nc(NCCO)nc21 [Olomoucine, reference compound]",GI50,BT-549,79 µM
same,GI50,HS 578T,63 µM
same,GI50,MCF7,50 µM
same,GI50,NCI/ADR-RES,100 µM
same,GI50,T-47D,63 µM
same,GI50,SF-268,50 µM
same,GI50,SF-295,79 µM
same,GI50,SNB-19,63 µM
same,GI50,COLO 205,32 µM
same,GI50,HCT-116,40 µM
same,GI50,SW-620,40 µM
same,GI50,CCRF-CEM,40 µM
same,GI50,HL-60(TB),40 µM
same,GI50,MOLT-4,63 µM
same,GI50,RPMI-8226,50 µM
same,GI50,SR,25 µM
same,GI50,LOX IMVI,32 µM
same,GI50,MALME-3M,100 µM
same,GI50,SK-MEL-2,100 µM
same,GI50,SK-MEL-28,50 µM
same,GI50,SK-MEL-5,40 µM
same,GI50,UACC-62,32 µM
same,GI50,A549/ATCC,50 µM
same,GI50,EKVX,100 µM
same,GI50,HOP-62,32 µM
same,GI50,HOP-92,50 µM
same,GI50,NCI-H226,50 µM
same,GI50,NCI-H322M,63 µM
same,GI50,NCI-H460,63 µM
same,GI50,NCI-H522,40 µM
same,GI50,OVCAR-3,79 µM
same,GI50,OVCAR-4,100 µM
same,GI50,SK-OV-3,100 µM
same,GI50,DU-145,40 µM
same,GI50,PC-3,100 µM
same,GI50,786-0,63 µM
same,GI50,ACHN,25 µM
same,GI50,CAKI-1,32 µM
same,GI50,RXF 393,20 µM
same,GI50,TK-10,63 µM
same,GI50,UO-31,32 µM
CC(=O)N[C@H]1CC[C@H](Nc2nc(NCc3ccc(-c4ccccn4)cc3)c3ncn(C(C)C)c3n2)CC1 [Compound 79],GI50,BT-549,< 0.01 µM
same,GI50,HS 578T,< 0.01 µM
same,GI50,MCF7,< 0.01 µM
same,GI50,NCI/ADR-RES,0.86 µM
same,GI50,T-47D,< 0.01 µM
same,GI50,SF-268,< 0.01 µM
same,GI50,SF-295,< 0.01 µM
same,GI50,SNB-19,< 0.01 µM
same,GI50,COLO 205,< 0.01 µM
same,GI50,HCT-116,< 0.01 µM
same,GI50,SW-620,< 0.01 µM
same,GI50,CCRF-CEM,< 0.01 µM
same,GI50,HL-60(TB),< 0.01 µM
same,GI50,MOLT-4,< 0.01 µM
same,GI50,RPMI-8226,< 0.01 µM
same,GI50,SR,< 0.01 µM
same,GI50,LOX IMVI,< 0.01 µM
same,GI50,MALME-3M,< 0.01 µM
same,GI50,SK-MEL-2,< 0.01 µM
same,GI50,SK-MEL-28,< 0.01 µM
same,GI50,SK-MEL-5,< 0.01 µM
same,GI50,UACC-62,< 0.01 µM
same,GI50,A549/ATCC,< 0.01 µM
same,GI50,EKVX,< 0.01 µM
same,GI50,HOP-62,< 0.01 µM
same,GI50,HOP-92,< 0.01 µM
same,GI50,NCI-H226,< 0.01 µM
same,GI50,NCI-H322M,< 0.01 µM
same,GI50,NCI-H460,< 0.01 µM
same,GI50,NCI-H522,< 0.01 µM
same,GI50,OVCAR-3,< 0.01 µM
same,GI50,OVCAR-4,< 0.01 µM
same,GI50,SK-OV-3,< 0.01 µM
same,GI50,DU-145,< 0.01 µM
same,GI50,PC-3,< 0.01 µM
same,GI50,786-0,< 0.01 µM
same,GI50,ACHN,< 0.01 µM
same,GI50,CAKI-1,< 0.01 µM
same,GI50,RXF 393,< 0.01 µM
same,GI50,TK-10,< 0.01 µM
same,GI50,UO-31,< 0.01 µM
